The source of these data is patent publication US20220296518A1, “LIPID-BASED NANOPARTICLE DELIVERY SYSTEM FOR HYDROPHILIC CHARGED COMPOUND” (National Taiwan University, priority 2021, published 2022).

Structures are written as SMILES. Values after ≈ are worked out from the molar mass of the structure shown.

One data set deals with Staphylococcus aureus. The data set is described as follows: In vitro antibacterial susceptibility, Staphylococcus aureus. As to conditions: 10^5 CFU, about 24 hour, about 37° C. It is filed as cell-based. As to the method:
FIG. 8 illustrates in vitro Staphylococcus aureus antibacterial susceptibility to LNP 1 of the present invention encapsulating doxycycline as compared to free form doxycycline both at MIC 0.4 mcg/ml.
(§1) Free form doxycycline and LNP 1 of the present invention containing doxy were separately applied to Staphylococcus aureus bacteria as well as methicillin-resistant Staphylococcus aureus at 10^5 CFU, incubation with LNP for about 24 hour at about 37° C.

In data set [1] the test system is methicillin-resistant Staphylococcus aureus. In words: In vitro antibacterial susceptibility, methicillin-resistant Staphylococcus aureus. The conditions noted are these: 10^5 CFU, about 24 hour, about 37° C. It is filed as cell-based. As to the method: FIG. 9 illustrates in vitro methicillin-resistant Staphylococcus aureus antibacterial susceptibility to LNP 1 of the present invention encapsulating doxycycline as compared to free form doxycycline both at MIC 0.4 mcg/ml.
as §1

Data set [2] is described as follows: In vitro drug release by dialysis at pH 7.4 (PBS) and pH 5.4 (citrate buffer), 37° C. It is filed as physicochemical. An excerpt:
The “normalized release” is defined as release ratio in pH 5.4 environment divided by release ratio in pH 7.4 environment wherein the release ratio is defined as the percentage of API released from LNP. A high normalized release is a result of high release ratio in pH 5.4 environment as compared to the release ratio in pH 7.4 environment. Since tumor sites present acidic environment, a high normalized release is a metric indicating tumor targeting capability of an LNP. During experiments, PBS buffer was used to simulate a physiological environment at pH of 7.4, while citrate buffer was used to simulate a tumor microenvironment at pH of 5.4, wherein the citrate buffer contains sodium citrate dehydrate and citric acid and its pH can be adjusted using NaOH and HCl. The in vitro API release was evaluated in these two different solutions using the following steps: 1 mg/mL LNP-dox solution in PBS buffer was prepared by diluting LNP-dox using PBS buffer. The solution was placed into a 1 mL/5 cm dialysis tube (Float-A-lyzer), in which the pore size is 100 kDa. The tube was placed into a beaker containing 150 mL dialysis buffer. The beaker was then placed into a 37° C. water bath. Samples of 1 mL solution were taken from the beaker at 0, 0.5, 1, 2, 4, 8, 26, and 31 hour(s). The API content in the samples was analyzed using UV-Vis spectrophotometer such as […]. […]

The test system of a further data set is colon-26 carcinoma tumor. The data set is described as follows: In vivo therapeutic efficacy in colon-26 carcinoma tumor-bearing mice. Set-up: species or system BALB/c mice. The conditions noted are these: end of the experiment; 5 mg/kg of dox via tail vein, once per week. The procedure:
C26 […] cancer cell line was implanted into the backs of BALB/c mice to create colon-26 carcinoma tumor-bearing mice. When the tumor grew to 100 mm^3, LNP 1 of the present invention containing dox was injected via mice's vein located in the tail at a dosage of 5 mg/kg of dox, once per week. At predetermined time periods 1, 2, 5, 7, 9, 12, 14, 19, 21, 22 days, tumor volume was determined by Vernier caliper. The experiment continued until either mouse death or the tumor size exceeding 2,500 mm^3.

One may read the MIC as the least concentration at which growth counts as inhibited. Lower therefore signals greater potency. Regarding `C[C@H]1c2cccc(O)c2C(=O)C2=C(O)[C@]3(O)C(=O)C(C(N)=O)=C(O)[C@@H](N(C)C)[C@@H]3[C@@H](O)[C@@H]21` [free form doxycycline, doxycycline], the minimum inhibitory concentration (MIC) (in the data set with Staphylococcus aureus; in data set [1]) was 0.4 µg/mL (≈ 0.9 µM) throughout.
Take `COc1cccc2c1C(=O)c1c(O)c3c(c(O)c1C2=O)C[C@@](O)(C(=O)CO)C[C@@H]3O[C@H]1C[C@H](N)[C@H](O)[C@H](C)O1` [free form dox, doxorubicin]: the “normalized release (release ratio at pH 5.4 / release ratio at pH 7.4)” value in data set [2] (37° C., dialysis, up to 31 hours) is listed as “about 1”. The “release rate (in words)” value in data set [2] (pH 7.4 and pH 5.4, 37° C., FIG. 6) is recorded as “released the fastest of the three”. In addition, in the data set with colon-26 carcinoma tumor, the “mice that died or had tumor size of over 2500 mm^3” value was determined as 40%.
